Results as given in patent publication US20110207745A1 (priority 2009, published 2011).
Counter-ions that a name gives are not always drawn. Like-named read-outs stand apart in the source and are kept apart here.

Assays:
[1] = Method: Stress Experiments. Solids are stressed under different temperature or relative humidity (RH) environments for a measured time period. Specific RH values are achieved by placing the sample inside sealed chambers containing saturated salt solutions, as known in the art. The salt solutions are selected and prepared following an ASTM standard procedure. Samples are analyzed by XRPD immediately after removal from the stress environment.
Analyses are carried out on an Agilent® model 1100 high performance liquid chromatograph using gradient elution on a reversed phase column utilizing ultraviolet (UV) detection. Approximately 25 mg of the sample is weighed accurately and dissolved in methanol/water/trifluoroacetic acid (35:65:0.05) to a volume of 50 mL. The sample solution is analysed using the conditions specified below:
The content of the drug and related substances are quantified by area (%).
Chemical Stability. The chemical stability of Form I of the mono-HCl salt of Compound A1 was assessed by stressing the material at various temperature/relative humidity/light conditions, then analyzing by HPLC.
Chemical Stability Data. The chemical stability of a sample of Form I of the sesquifumarate salt of Compound A1 was assessed by stressing the material at various temperature/relative humidity/light conditions, then analyzing by HPLC.

[2] = Solubility in simulated biological media; assay type: physicochemical; details: mean ± SD, n = 2
Excerpt: Solubility and Dissolution Rate Data.
Solubility and Dissolution Rate Data. […]

[3] = Intrinsic dissolution rate in simulated biological media; assay type: physicochemical
Method: Intrinsic dissolution rate is determined at 37° C. using a Distek Dissolution System model 5100A with a sample size of approximately 200 mg (0.5 cm^2 disc) and 500 mL dissolution medium. The paddle speed is set to 500 rpm and the paddle height to approximately 2.54 cm above the disc surface. The concentration of sample in solution is determined by HPLC.

[4] = assay type: physicochemical; details: water vapor sorption, typical laboratory humidity (55% RH)
Method: Data are collected on a VTI SGA-100 moisture balance system. For sorption isotherms, a sorption range of about 0% to about 90% relative humidity (RH) and a desorption range of about 90 to about 0% RH in 10% RH increments are used for analysis. The samples are not dried prior to analysis. Equilibrium criteria used for analysis are less than 0.0100% weight change in 5 minutes with a maximum equilibration time of 3 hours if the weight criterion is not met. Data are not corrected for the initial moisture content of the samples.
The amorphous material was placed into preset RH conditions (50% and 75% RH) for 24 hours to check dynamic moisture absorption as well as deliquescence.

[5] = Plasma exposure of efficacious doses in rodents; assay type: in vivo; details: separate tests of anxiolysis and antidepressant activity
[6] = Ultraviolet light, 25° C./60% RH, 2x ICH (2 days), stored open
[7] = Ultraviolet light, 25° C./60% RH, 3x ICH (3 days), stored open
[8] = Ultraviolet light, 25° C./60% RH, ICH (1 day), stored open
[9] = White light, 25° C./60%, ICH (7 days), stored open
[10] = 0.1M phosphate buffer, initial pH 7.5
[11] = FaSSIF (fasted-state simulated intestinal fluid), initial pH 6.51
[12] = FeSSIF (fed-state simulated intestinal fluid), initial pH 5.03
[13] = SGF (simulated gastric fluid), initial pH 1.3

SMILES: CCN(CC)C(=O)c1ccc([C@H](c2cccc(N)c2)N2CCN(Cc3ccc(F)cc3)CC2)cc1 [Form I of the sesquifumarate salt of Compound A1] [4-{(R)-(3-aminophenyl)[4-(4-fluorobenzyl)piperazin-1-yl]methyl}-N,N-diethylbenzamide]
- % Purity (after challenge) ([1]; 25° C./60% RH, 7 days): 99.6%
- % Purity (reference material) ([1]; 25° C./60% RH, 7 days): 104.0%
- % Purity (after challenge) ([1]; 40° C./75% RH, 7 days): 99.5%
- % Purity (reference material) ([1]; 40° C./75% RH, 7 days): 103.5%
- % Purity after 60° C./80% RH, 2 wks ([1]; 60° C./80% RH, 2 weeks, HPLC area %): 86.5%
- % Purity after 60° C./80% RH, 4 wks ([1]; 60° C./80% RH, 4 weeks, HPLC area %): 80.3%
- % Purity after 80° C., 2 wks ([1]; 80° C., 2 weeks, HPLC area %): 91.8%
- % Purity after 80° C., 4 wks ([1]; 80° C., 4 weeks, HPLC area %): 86.1%
- % Purity (after challenge) ([1]; 80° C., 7 days): 97.1%
- % Purity (reference material) ([1]; 80° C., 7 days): 99.8%
- Purity after Photostability 3X ICH conditions ([1]; Photostability 3X ICH conditions, HPLC area %): 93.2%
- % Purity (after challenge) ([1]; Reference, 0 days): 99.6%
- % Purity (reference material) ([1]; Reference, 0 days): 100%
- % Purity (after challenge) [1, 6]: 99.6%
- % Purity (reference material) [1, 6]: 100.7%
- % Purity (after challenge) [1, 7]: 99.4%
- % Purity (reference material) [1, 7]: 100.9%
- % Purity (after challenge) [1, 8]: 99.5%
- % Purity (reference material) [1, 8]: 100.2%
- % Purity (after challenge) [1, 9]: 99.5%
- % Purity (reference material) [1, 9]: 101.7%
- Initial Purity ([1]; initial, before storage, HPLC area %): 98.6%
- Solubility, 3 hr [2, 10]: 180 µg/mL
- Solubility, 24 hr [2, 10]: 120 µg/mL
- Solubility, 3 hr [2, 11]: 4400 µg/mL
- Solubility, 24 hr [2, 11]: 4130 µg/mL
- Solubility, 3 hr [2, 12]: 2540 µg/mL
- Solubility, 24 hr [2, 12]: 2660 µg/mL
- Solubility, 3 hr [2, 13]: 17400 µg/mL
- Solubility, 24 hr [2, 13]: 17100 µg/mL
- IDR (intrinsic dissolution rate) ([3]; FaSSIF, initial pH 6.51, mean ± SD, n = 2): 553 μg/min/cm^2
- IDR (intrinsic dissolution rate) ([3]; FaSSIF, initial pH 6.51, mean ± SD, n = 2, listed as Compound A1 Sesquifumarate Salt): 553 ± 68.9 μg/min/cm^2
- IDR (intrinsic dissolution rate) ([3]; FeSSIF, initial pH 5.03, mean ± SD, n = 2): 33.5 μg/min/cm^2
- IDR (intrinsic dissolution rate) ([3]; FeSSIF, initial pH 5.03, mean ± SD, n = 2, listed as Compound A1 Sesquifumarate Salt): 33.5 ± 1.15 μg/min/cm^2
- IDR (intrinsic dissolution rate) ([3]; SGF, initial pH 1.3): too soluble to permit determination of its IDR
- moisture content at equilibrium [4]: approximately 4.5%
- mean plasma exposures produced by efficacious doses [5]: ≥ 2 ng/mL
